In patent publication US9206184B2, “Disubstituted benzothienyl-pyrrolotriazines and uses thereof” (BAYER INTELLECTUAL PROPERTY GmbH, priority 2011, dated 2015):

Experiments:
human FGFR-3 = human FGFR-3 (Homo sapiens (Human), UniProt P22607); experiment: FGFR-3 kinase assay (TR-FRET); assay type: biochemical; conditions: 10 μM ATP; 15 min pre-incubation with enzyme; compounds of the invention
human FGFR-1 = human FGFR-1 (Homo sapiens, UniProt P11362); experiment: FGFR-1 high ATP kinase assay (TR-FRET); assay type: biochemical; conditions: 2 mM ATP; 15 min pre-incubation with enzyme; compounds of the invention
Chain of human FGFR-1 (P11362 22-822 limits assumed): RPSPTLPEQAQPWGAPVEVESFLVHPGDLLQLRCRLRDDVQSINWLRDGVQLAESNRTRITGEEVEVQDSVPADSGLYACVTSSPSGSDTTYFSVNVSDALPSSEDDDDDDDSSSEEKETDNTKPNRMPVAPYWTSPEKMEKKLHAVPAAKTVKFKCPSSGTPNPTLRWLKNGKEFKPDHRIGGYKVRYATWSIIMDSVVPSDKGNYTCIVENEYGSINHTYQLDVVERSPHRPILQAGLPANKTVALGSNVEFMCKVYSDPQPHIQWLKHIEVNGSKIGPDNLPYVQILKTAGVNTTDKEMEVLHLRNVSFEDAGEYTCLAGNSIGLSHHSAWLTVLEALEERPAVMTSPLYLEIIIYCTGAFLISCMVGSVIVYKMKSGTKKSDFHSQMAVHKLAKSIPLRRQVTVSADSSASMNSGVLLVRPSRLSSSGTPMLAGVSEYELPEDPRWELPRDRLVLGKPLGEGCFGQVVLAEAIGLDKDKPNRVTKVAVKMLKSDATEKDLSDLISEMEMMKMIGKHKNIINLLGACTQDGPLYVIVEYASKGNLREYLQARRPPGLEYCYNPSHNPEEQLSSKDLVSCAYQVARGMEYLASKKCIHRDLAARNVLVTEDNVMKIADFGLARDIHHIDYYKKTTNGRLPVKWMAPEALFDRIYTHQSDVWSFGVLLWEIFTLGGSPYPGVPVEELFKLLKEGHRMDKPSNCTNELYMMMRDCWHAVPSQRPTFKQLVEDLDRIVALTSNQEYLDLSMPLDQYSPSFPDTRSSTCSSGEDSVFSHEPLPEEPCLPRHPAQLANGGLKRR

Chain of human FGFR-3 (P22607 397-806): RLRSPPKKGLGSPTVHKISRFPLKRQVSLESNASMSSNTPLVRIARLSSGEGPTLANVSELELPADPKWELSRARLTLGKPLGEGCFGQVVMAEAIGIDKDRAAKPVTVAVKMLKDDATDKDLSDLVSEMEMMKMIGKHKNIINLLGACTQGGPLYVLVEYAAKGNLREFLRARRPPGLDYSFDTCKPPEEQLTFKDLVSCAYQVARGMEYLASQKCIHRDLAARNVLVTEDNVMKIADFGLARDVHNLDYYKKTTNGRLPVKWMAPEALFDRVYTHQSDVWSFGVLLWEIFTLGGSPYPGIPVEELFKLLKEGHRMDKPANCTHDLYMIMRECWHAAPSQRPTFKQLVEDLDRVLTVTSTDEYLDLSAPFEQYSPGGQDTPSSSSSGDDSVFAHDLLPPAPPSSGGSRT

SMILES	IC50 (human FGFR-3) [nM]	IC50 (human FGFR-1) [nM]
COc1cc(C)cc2cc(-c3c(CNCC(C)O)c(CN4CCOCC4)n4ncnc(N)c34)sc12 (racemic) [Example 53, rac-1-({[4-Amino-5-(7-methoxy-5-methyl-1-benzothiophen-2-yl)-7-(morpholin-4-ylmethyl)pyrrolo[2,1-f][1,2,4]triazin-6-yl]methyl}amino)propan-2-ol]	2.5	3.9
COc1cc(C)cc2cc(-c3c(CO)c(CN4CCNC(=O)C4)n4ncnc(N)c34)sc12 [Example 13, 4-{[4-Amino-6-(hydroxymethyl)-5-(7-methoxy-5-methyl-1-benzothiophen-2-yl)pyrrolo[2,1-f]-[1,2,4]triazin-7-yl]methyl}piperazin-2-one]	10	2.5
CCOCc1c(-c2cc3cc(C)cc(OC)c3s2)c2c(N)ncnn2c1CN1CC[C@](C)(N)C1 [Example 15, 7-{[(3S)-3-Amino-3-methylpyrrolidin-1-yl]methyl}-6-(ethoxymethyl)-5-(7-methoxy-5-methyl-1-benzothiophen-2-yl)pyrrolo[2,1-f][1,2,4]triazin-4-amine]	1	1
CCOCc1c(-c2cc3cc(C)cc(OC)c3s2)c2c(N)ncnn2c1CN1CCN(C(C)=O)CC1 [Example 20, 1-(4-{[4-Amino-6-(ethoxymethyl)-5-(7-methoxy-5-methyl-1-benzothiophen-2-yl)pyrrolo[2,1-f]-[1,2,4]triazin-7-yl]methyl}piperazin-1-yl)ethanone]	26.1	25
COc1cc(C)cc2cc(-c3c(COCCO)c(CN4CCNC(=O)C4)n4ncnc(N)c34)sc12 [Example 21, 4-({4-Amino-6-[(2-hydroxyethoxy)methyl]-5-(7-methoxy-5-methyl-1-benzothiophen-2-yl)pyrrolo-[2,1-f][1,2,4]triazin-7-yl}methyl)piperazin-2-one formiate]	13	4.2
COc1cc(C)cc2cc(-c3c(COCC(F)(F)F)c(CN4CCNCC4)n4ncnc(N)c34)sc12 [Example 29, 5-(7-Methoxy-5-methyl-1-benzothiophen-2-yl)-7-(piperazin-1-ylmethyl)-6-[(2,2,2-trifluoroethoxy)methyl]pyrrolo[2,1-f][1,2,4]triazin-4-amine formiate]	2.5	1.6
COc1cc(C)cc2cc(-c3c(COCC(N)=O)c(CN4CCNCC4)n4ncnc(N)c34)sc12 [Example 33, 2-{[4-Amino-5-(7-methoxy-5-methyl-1-benzothiophen-2-yl)-7-(piperazin-1-ylmethyl)pyrrolo-[2,1-f][1,2,4]triazin-6-yl]methoxy}acetamide]	7.2	1
COc1cc(C)cc2cc(-c3c(COCC(N)=O)c(CN4CCN(C(C)=O)CC4)n4ncnc(N)c34)sc12 [Example 34, 2-({7-[(4-Acetylpiperazin-1-yl)methyl]-4-amino-5-(7-methoxy-5-methyl-1-benzothiophen-2-yl)pyrrolo[2,1-f][1,2,4]triazin-6-yl}methoxy)acetamide]	10.5	6
COc1cc(C)cc2cc(-c3c(CN[C@H]4CCNC4=O)c(CN4CCOCC4)n4ncnc(N)c34)sc12 [Example 51, (3S)-3-({[4-Amino-5-(7-methoxy-5-methyl-1-benzothiophen-2-yl)-7-(morpholin-4-ylmethyl)pyrrolo[2,1-f][1,2,4]triazin-6-yl]methyl}amino)pyrrolidin-2-one]	3.9	4.4
COc1cc(C)cc2cc(-c3c(CN4CCNC(=O)C4)c(CN4CCOCC4)n4ncnc(N)c34)sc12 [Example 52, 4-{[4-Amino-5-(7-methoxy-5-methyl-1-benzothiophen-2-yl)-7-(morpholin-4-ylmethyl)pyrrolo-[2,1-f][1,2,4]triazin-6-yl]methyl}piperazin-2-one]	7	9.7
COc1cc(C)cc2cc(-c3c(CN[C@@H]4CCNC4=O)c(CN4CCN(C(C)=O)CC4)n4ncnc(N)c34)sc12 [Example 56, (3R)-3-[({7-[(4-Acetylpiperazin-1-yl)methyl]-4-amino-5-(7-methoxy-5-methyl-1-benzothiophen-2-yl)pyrrolo[2,1-f][1,2,4]triazin-6-yl}methyl)amino]pyrrolidin-2-one]	2	2.4
COc1cc(C)cc2cc(-c3c(CNCC(C)(C)O)c(CN4CCN(C(C)=O)CC4)n4ncnc(N)c34)sc12 [Example 57, 1-(4-{[4-Amino-6-{[(2-hydroxy-2-methylpropyl)amino]methyl}-5-(7-methoxy-5-methyl-1-benzothiophen-2-yl)pyrrolo[2,1-f][1,2,4]triazin-7-yl]methyl}piperazin-1-yl)ethanone]	1.8	3.2
COc1cc(C)cc2cc(-c3c(CN4CCNC(=O)C4)c(CN4CCN(C=O)CC4)n4ncnc(N)c34)sc12 [Example 58, 4-({4-Amino-5-(7-methoxy-5-methyl-1-benzothiophen-2-yl)-6-[(3-oxopiperazin-1-yl)methyl]-pyrrolo[2,1-f][1,2,4]triazin-7-yl}methyl)piperazine-1-carbaldehyde formiate]	9.8	6.8
COc1cc(C)cc2cc(-c3c(CNC(C)=O)c(CN4CCN(C=O)CC4)n4ncnc(N)c34)sc12 [Example 65, N-({4-Amino-7-[(4-formylpiperazin-1-yl)methyl]-5-(7-methoxy-5-methyl-1-benzothiophen-2-yl)pyrrolo[2,1-f][1,2,4]triazin-6-yl}methyl)acetamide formiate]	3.1	5.6
COc1cc(C)cc2cc(-c3c(CNC(C)=O)c(CN4CCNC(=O)C4)n4ncnc(N)c34)sc12 [Example 67, N-({4-Amino-5-(7-methoxy-5-methyl-1-benzothiophen-2-yl)-7-[(3-oxopiperazin-1-yl)methyl]-pyrrolo[2,1-f][1,2,4]triazin-6-yl}methyl)acetamide]	9.4	5
COc1cc(C)cc2cc(-c3c(CO)c(C#N)n4ncnc(N)c34)sc12 [Example 68, 4-Amino-6-(hydroxymethyl)-5-(7-methoxy-5-methyl-1-benzothiophen-2-yl)pyrrolo[2,1-f][1,2,4]-triazine-7-carbonitrile]	42.7	27
COc1cc(C)cc2cc(-c3c(CN4CCNC(=O)C4)c(C(C)(C)O)n4ncnc(N)c34)sc12 [Example 74, 4-{[4-Amino-7-(2-hydroxypropan-2-yl)-5-(7-methoxy-5-methyl-1-benzothiophen-2-yl)pyrrolo-[2,1-f][1,2,4]triazin-6-yl]methyl}piperazin-2-one]	1.4	4
COc1cc(C)cc2cc(-c3c(CN4CCNC(=O)C4)c(C)n4ncnc(N)c34)sc12 [Example 76, 4-{[4-Amino-5-(7-methoxy-5-methyl-1-benzothiophen-2-yl)-7-methylpyrrolo[2,1-f][1,2,4]triazin-6-yl]methyl}piperazin-2-one]	1.4	2.8

Further compounds by falling IC50 (human FGFR-3), results first:

IC50 (human FGFR-3) [nM]	IC50 (human FGFR-1) [nM]	SMILES
77.9	16.2	COC(=O)c1c(-c2cc3cc(C)cc(OC)c3s2)c2c(N)ncnn2c1C(=O)N1CCNCC1 [Example 60, Methyl 4-amino-5-(7-methoxy-5-methyl-1-benzothiophen-2-yl)-7-(piperazin-1-ylcarbonyl)pyrrolo-[2,1-f][1,2,4]triazine-6-carboxylate bis(formiate)]
65.4	61.3	COc1cc(C)cc2cc(-c3c(COc4ccccc4)c(CN4CCNCC4)n4ncnc(N)c34)sc12 [Example 35, 5-(7-Methoxy-5-methyl-1-benzothiophen-2-yl)-6-(phenoxymethyl)-7-(piperazin-1-ylmethyl)pyrrolo[2,1-f][1,2,4]triazin-4-amine bis(formiate)]
19.8	4.1	COc1cc(C)cc2cc(-c3c(CO)c(C)n4ncnc(N)c34)sc12 [Example 75, [4-Amino-5-(7-methoxy-5-methyl-1-benzothiophen-2-yl)-7-methylpyrrolo[2,1-f][1,2,4]triazin-6-yl]methanol]
12.2	4.4	COc1cc(C)cc2cc(-c3c(CO)c(C(C)(C)O)n4ncnc(N)c34)sc12 [Example 73, 2-[4-Amino-6-(hydroxymethyl)-5-(7-methoxy-5-methyl-1-benzothiophen-2-yl)pyrrolo[2,1-f]-[1,2,4]triazin-7-yl]propan-2-ol]
6.8	11.2	COc1cc(C)cc2cc(-c3c(CNCC(C)(C)O)c(CN4CCOCC4)n4ncnc(N)c34)sc12 [Example 54, 1-({[4-Amino-5-(7-methoxy-5-methyl-1-benzothiophen-2-yl)-7-(morpholin-4-ylmethyl)pyrrolo-[2,1-f][1,2,4]triazin-6-yl]methyl}amino)-2-methylpropan-2-ol]
6.8	3.8	COc1cc(C)cc2cc(-c3c(CN4CCNC(=O)C4)c(CN4CCN(C(C)=O)CC4)n4ncnc(N)c34)sc12 [Example 59, 4-({7-[(4-Acetylpiperazin-1-yl)methyl]-4-amino-5-(7-methoxy-5-methyl-1-benzothiophen-2-yl)pyrrolo[2,1-f][1,2,4]triazin-6-yl}methyl)piperazin-2-one]
5.2	0.7	COc1cc(C)cc2cc(-c3c(COCC4CC4)c(CN4CCNCC4)n4ncnc(N)c34)sc12 [Example 25, 6-[(Cyclopropylmethoxy)methyl]-5-(7-methoxy-5-methyl-1-benzothiophen-2-yl)-7-(piperazin-1-ylmethyl)pyrrolo[2,1-f][1,2,4]triazin-4-amine bis(formiate)]
4.9	0.9	COc1cc(C)cc2cc(-c3c(COC4CCC4)c(CN4CCNCC4)n4ncnc(N)c34)sc12 [Example 26, 6-[(Cyclobutyloxy)methyl]-5-(7-methoxy-5-methyl-1-benzothiophen-2-yl)-7-(piperazin-1-ylmethyl)pyrrolo[2,1-f][1,2,4]triazin-4-amine]
3.7	1.6	COc1cc(C)cc2cc(-c3c(CNC(C)=O)c(CN4CCN(C(C)=O)CC4)n4ncnc(N)c34)sc12 [Example 66, N-({7-[(4-Acetylpiperazin-1-yl)methyl]-4-amino-5-(7-methoxy-5-methyl-1-benzothiophen-2-yl)pyrrolo[2,1-f][1,2,4]triazin-6-yl}methyl)acetamide]
